Tests used:
[1] = target: T1, full-length TDP-43 recombinant protein (Homo sapiens, UniProt Q13148); assay: In vitro analysis of TDP-43 fiber formation (negative staining electron microscopy); type: biochemical
T1 construct: Three-micromolar full-length TDP-43 recombinant protein (GenWay); purchased GenWay

[2] = system: GFP-TDP-43-IIPLD inclusion-expressing 293T cells; assay: TDP-43-IIPLD misfolded aggregates in transfected 293T cells (microscopy); type: cell-based
Description: Cell Culture and Drug Treatment: 293T cells were used throughout the experimental studies. 293T cells were grown in Dulbecco's modified Eagle's medium (DMEM)/F12, which was supplemented with 10% fetal bovine serum, 1% penicillin/streptomycin and 1% L-glutamate. Primary cultures of rat hippocampal neurons were prepared from embryonic day 17 rat embryos as previously described by (Wang et al, TDP-43, the signature protein of FTLD-U, is a neuronal activity-responsive factor. J. Neurochem. 105, 79T-806 (2008)). All procedures for handling the rat were carried out in accordance with the guidelines approved by the Institutional Animal Care and Utilization Committee, Academia Sinica. Hippocampal cells were plated on poly-1-lysine-coated coverslides at low density (10,000 cells per cm2) and cultured in the neurobasal medium/B27 (Invitrogen). The 293T cells were transfected using the calcium phosphate protocol according to the manufacturer's instructions and as previously described by Wang et al. (Wang et al., ProcNatlAcadSci USA. 99, 13583-13588 (2002). All of the plasmid constructs were described in Wang et al., Nature Communication, 2012). 293T cells (1×10^5) were seeded in each well of a six-well plate and incubated overnight in a 37° C. incubator with 5% CO2. To determine the effects of off-pathway stabilizers on the reduction of pathological-like aggregates, the cells were treated with baicalein and EGCG for 12, 24, or 48 h with the indicated concentrations (25 or 50 μM).
GFP-TDP-43 pathological-like (GFP-TDP-43-IIPLD) inclusion-expressing 293T cells were treated with or without 50 μM baicalein for 12 h following microscopic analysis and Western blotting validation. […] (FIG. 2c).

[3] = system: TDP-43-mediated CFTR exon 9 skipping; assay: Alternative splicing assay (in vivo splicing, CFTR minigene); type: cell-based
Description: Alternative Splicing Assay: TDP-43-mediated CFTR exon 9 skipping assays were performed as previously described. Briefly, cells were cotransfected with TDP-43 plasmid, hCF-(TG)13(T)5 minigenes and the indicated plasmids, including VCP/p97 wt, VCP/p97 QQ, HSPB1, lamin A or progeria, or HSPB1 siRNA. Total RNA of transfectanted cells was isolated by TRIzol reagent (Invitrogen), and RT-PCR was carried out by Superscript III (Invitrogen) using specific primers to amplify exons 8-10 of CFTR according to the manufacturer's protocol. The relative amounts of cDNA were validated on 1.3% agarose gels. […]

[4] = system: TDP-43 in cells expressing progeria proteins; assay: Localization of TDP-43 in progeria-expressing cells (immunofluorescence); type: cell-based
Description: Immunohistochemistry: Fluorescence staining was performed as described previously (Wang et al., 2012). Cells were transfected with or without plasmids or siRNAs and grown for 24 to 48 hr. Cells were fixed with 3.7% paraformaldehyde in PBS at RT for 15 min and then permeabilized with 0.1% Triton X-100. The fixed cells were incubated with primary antibodies at RT for 2 hr followed by incubation with Cy2- or Cy3-labeled secondary antibodies (Molecular Probes). Slides were mounted using Vectashield DAPI H-1200 (Vector). Cellular fluorescence images were collected using an LSM710 META laser-scanning confocal microscope (Zeiss).
To further characterize whether TDP-43 proteins are present in the nuclear matrix, consisting of proteins such as lamina A/C, we double-stained TDP-43 (green) with lamina A/C (red) (FIG. 7). The TDP-43 fibrogranular framework was partially connected to lamina A/C (FIG. 7a, the arrow indicates the colocalization area). As defective lamin A can cause progeria and the a premature aging disorder HGPS, overexpression of progeria proteins is considered a cell model of aging and allowed us to explore the mechanistic link between TDP-43 and aging or a lamin A pathology. We thus overexpressed progeria proteins and examined TDP-43 localization, the efficiency of TDP-43PLD-mediated exon 9 skipping and TDP-43 polymers. […]

[5] = system: progeria-expressing cells; assay: Nuclear shape in progeria-expressing cells (anti-lamin A/C immunostaining); type: cell-based; settings: progeria-expressing cells (HGPS model)
SMNA7-expressing cells = assay: Cell viability assay of SMNA7-expressing cells; type: cell-based; settings: 50 μM baicalein
Source text: (§1) We investigate whether baicalein can act as a pharmacological chaperone to refold misfolded SMNA7 into a functional prion-like domain, as shown in FIG. 8 (FIG. 10a). […] PFN1 is a known SMN interactor in the cytosol. We further examined whether baicalein attenuated the degradation of the SMNA7 protein. […] We found baicalein increased the length of axons from NSC34 cells expressing SMNA7 by approximately 2-fold (FIG. 10g).

SMNA7 cells = assay: Morphology (neurite-like structure) of SMNA7 cells; type: cell-based; settings: baicalein
Source text: as §1

PFN1 and SMNA7 = target: T2, PFN1 and SMNA7 (Homo sapiens, UniProt Q16637); assay: Co-immunoprecipitation of PFN1 and SMNA7; type: cell-based; settings: in the presence of baicalein
T2 construct: expressed in transfected cells
Source text: as §1

T1 sequence (Q13148 whole entry): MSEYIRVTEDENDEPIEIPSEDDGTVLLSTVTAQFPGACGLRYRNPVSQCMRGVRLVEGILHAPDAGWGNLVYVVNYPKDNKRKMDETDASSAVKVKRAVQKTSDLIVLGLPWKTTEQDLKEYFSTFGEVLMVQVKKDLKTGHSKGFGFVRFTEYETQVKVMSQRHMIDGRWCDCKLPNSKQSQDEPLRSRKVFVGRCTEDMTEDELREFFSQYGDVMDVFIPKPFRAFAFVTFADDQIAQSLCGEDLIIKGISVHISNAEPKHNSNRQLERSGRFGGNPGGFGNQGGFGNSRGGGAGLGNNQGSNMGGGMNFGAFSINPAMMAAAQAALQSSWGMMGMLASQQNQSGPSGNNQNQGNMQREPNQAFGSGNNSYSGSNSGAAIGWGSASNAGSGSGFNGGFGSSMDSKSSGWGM
T2 sequence (Q16637 1-282 isoform Q16637-3): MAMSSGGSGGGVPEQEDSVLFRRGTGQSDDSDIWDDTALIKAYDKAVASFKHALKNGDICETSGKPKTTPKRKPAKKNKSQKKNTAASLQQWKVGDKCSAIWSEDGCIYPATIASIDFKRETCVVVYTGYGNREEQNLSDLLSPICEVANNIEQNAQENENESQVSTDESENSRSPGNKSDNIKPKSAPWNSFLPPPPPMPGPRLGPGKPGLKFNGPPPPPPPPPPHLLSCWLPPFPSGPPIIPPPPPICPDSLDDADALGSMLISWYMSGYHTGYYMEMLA

length of baicalein-inducing TDP-43 polymers ([1]; 3 μM TDP-43 with 3 μM baicalein, RT, agitation, 30-90 min, fibers without compound 3 to 10 μm): 0.15-0.9 μm | interactions between PFN1 and SMNA7 (PFN1 and SMNA7): significantly increased
SMILES: O=c1cc(-c2ccccc2)oc2cc(O)c(O)c(O)c12 [baicalein]
remodeling of TDP-43 fibers, oligomers or natively unfolded monomers ([1]; equimolar baicalein, time-dependent): efficiently remodeled into ordered TDP-43 polymers | TDP-43-IIPLD aggregates, statistical analysis of dose dependence [2]: dosage-dependent reduction of TDP-43-IIPLD aggregates | assembly of TDP-43-IIPLD proteinaceous nucleating particles ([2]; 50 μM): inhibited the assembly of TDP-43-IIPLD proteinaceous nucleating particles | CFTR exon 9 skipping ([3]; VCP/p97-QQ-expressing cells): increased CFTR exon 9 skipping | failure of TDP-43 to promote CFTR exon 9 skipping ([3]; cells co-transfected with TDP-43 and VCP/p97 R155H mutant): corrected | dysfunction caused by FTLD/ALS-linked sporadic mutation R361S of TDP-43 ([3]; cells expressing VCP/p97-QQ): rescued dysfunction | dysfunction of proline substitution mutant GFP-TDP-43-Q303P ([3]; cells expressing VCP/p97-QQ): rescued dysfunction | TDP-43 dysfunction (CFTR exon 9 skipping) ([3]; cells expressing progeria): rescued TDP-43 dysfunction caused by progeria in a dose-dependent manner | restoring ratio of exon skipping ([3]; cells expressing progeria, baicalein 10 μm): 1.31 | restoring ratio of exon skipping ([3]; cells expressing progeria, baicalein 50 μm): 1.91 | TDP-43-mediated CFTR exon 9 skipping ([3]; cells treated with only baicalein, TDP-43 overexpressed): enhanced ability to promote the TDP-43-mediated CFTR exon 9 skipping in a dose-dependent manner | exon skipping of CFTR ([3]; without co-overexpressing TDP-43 proteins): no effect | nuclear localization of TDP-43 [4]: significantly induced the retention of nuclear TDP-43 | nuclear shape defects [5]: corrected nuclear shape defects in HGPS | increase of viability of SMNA7 cells (SMNA7-expressing cells): approximately 2 fold | neurite-like structure of SMNA7 cells (SMNA7 cells): increased the neurite-like structure of SMNA7 cells

— patent US20210121438A1, “METHODS FOR TREATING OR PREVENTING CONFORMATION DISEASES AND METHODS FOR DRUG SCREENING” (GARAGE BRAIN SCIENCE CO., LTD, priority 2018, published 2021)
